Assay results as given in patent publication US12077503B2, “Substituted cyclic amides and their use as herbicides” (FMC CORPORATION, priority 2015, dated 2024).

Assays:
Format in all cases: in vivo
[1] = system: barnyardgrass (Echinochloa crus-galli); experiment: Test G Post-Emergence Protocol; settings: Echinochloa crus-galli, post-emergence, 312 h, read-out: Barnyardgrass damage rating
Outline: (§1)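 Sow in soil; grow 8 d (24/16 °C, 14 h light, 65% humidity); spray 15.625/62.5/250 g/ha in acetone:water 50:50 + 0.5% Tween 20; grow on, water twice daily; score damage 0–100 at 13 d.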

[2] = system: giant foxtail (Setaria faberi); experiment: Test G Post-Emergence Protocol; settings: Setaria faberi, post-emergence, 312 h, read-out: Foxtail, Giant damage rating
Outline: as §1

[3] = system: velvetleaf (Abutilon theophrasti); experiment: Test G Post-Emergence Protocol; settings: Abutilon theophrasti, post-emergence, 312 h, read-out: Velvetleaf damage rating
Outline: as §1

[4] = system: corn (Zea mays); experiment: Test G Post-Emergence Protocol; settings: Zea mays, post-emergence, 312 h, read-out: Corn damage rating
Outline: as §1

[5] = system: ivy-leaved morning glory (Ipomoea hederacea); experiment: Test G Post-Emergence Protocol; settings: Ipomoea, post-emergence, 312 h, read-out: Morningglory, Ivy-leaved damage rating
Outline: as §1

[6] = system: redroot pigweed (Amaranthus retroflexus); experiment: Test G Post-Emergence Protocol; settings: Amaranthus retroflexus, post-emergence, 312 h, read-out: Pigweed, Redroot damage rating
Outline: as §1

[7] = system: barnyardgrass (Echinochloa crus-galli); experiment: Test G Pre-Emergence Protocol; settings: Echinochloa crus-galli, pre-emergence, 312 h, evaluated after 13 days
Outline: (§2)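 Spraying took place one day after sowing, at 15.625, 62.5 or 250 g/ha, using an acetone/water (50:50) spray solution containing 0.5% Tween 20. Plants were kept under glasshouse conditions (24/16 °C, 14 h light, 65% humidity, watered twice daily), and injury was rated 0–100 at day 13.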

[8] = system: giant foxtail (Setaria faberi); experiment: Test G Pre-Emergence Protocol; settings: Setaria faberi, pre-emergence, 312 h, evaluated after 13 days
Outline: as §2

[9] = system: velvetleaf (Abutilon theophrasti); experiment: Test G Pre-Emergence Protocol; settings: Abutilon theophrasti, pre-emergence, 312 h, evaluated after 13 days
Outline: as §2

[10] = system: corn (Zea mays); experiment: Test G Pre-Emergence Protocol; settings: Zea mays, pre-emergence, 312 h, evaluated after 13 days
Outline: as §2

[11] = system: ivy-leaved morning glory (Ipomoea hederacea); experiment: Test G Pre-Emergence Protocol; settings: Ipomoea, pre-emergence, 312 h, evaluated after 13 days
Outline: as §2

[12] = system: redroot pigweed (Amaranthus retroflexus); experiment: Test G Pre-Emergence Protocol; settings: Amaranthus retroflexus, pre-emergence, 312 h, evaluated after 13 days
Outline: as §2

[13] = 15.625 g ai/ha, evaluated after 13 days (100=total damage to plant; 0=no damage to plant)
[14] = 62.5 g ai/ha, evaluated after 13 days, 100=total damage to plant, 0=no damage to plant
[15] = 250 g ai/ha, evaluated after 13 days, 100=total damage to plant, 0=no damage to plant

CN1C[C@H](c2ccc(Cl)cc2)[C@@H](C(=O)Nc2cccnc2F)C1=O [Compound 1810] showed a pest or weed control at 15.625 g/ha [1, 13] of 0%, a pest or weed control at 62.5 g/ha [1, 14] of 60% and a pest or weed control at 250 g/ha [1, 15] of 80%. For the same compound, the pest or weed control at 15.625 g/ha [2, 13] was 20%, the pest or weed control at 62.5 g/ha [2, 14] was 80% and the pest or weed control at 250 g/ha [2, 15] was 80%. For the same compound, the pest or weed control at 15.625 g/ha [3, 13] was 20%, the pest or weed control at 62.5 g/ha [3, 14] was 30% and the pest or weed control at 250 g/ha [3, 15] was 40%. The plant injury at 15.625 g/ha [4, 13] was 0%, the plant injury at 62.5 g/ha [4, 14] was 0% and the plant injury at 250 g/ha [4, 15] was 50%. It also gave a pest or weed control at 15.625 g/ha [5, 13] of 20%, a pest or weed control at 62.5 g/ha [5, 14] of 60% and a pest or weed control at 250 g/ha [5, 15] of 20%. For the same compound, the pest or weed control at 15.625 g/ha [6, 13] was 0%, the pest or weed control at 62.5 g/ha [6, 14] was 10% and the pest or weed control at 250 g/ha [6, 15] was 60%. The pest or weed control at 15.625 g/ha ([7]; 15.625 g ai/ha, read-out: Barnyardgrass damage rating (100=total damage to plant; 0=no damage to plant)) was 60%, the pest or weed control at 62.5 g/ha ([7]; 62.5 g ai/ha, 100=total damage to plant, 0=no damage to plant, read-out: Barnyardgrass damage rating) was 90% and the pest or weed control at 250 g/ha ([7]; 250 g ai/ha, read-out: Barnyardgrass damage rating (100=total damage to plant; 0=no damage to plant)) was 90%. The pest or weed control at 15.625 g/ha ([8]; 15.625 g ai/ha, read-out: Foxtail, Giant damage rating (100=total damage to plant; 0=no damage to plant)) was 80%, the pest or weed control at 62.5 g/ha ([8]; 62.5 g ai/ha, 100=total damage to plant, 0=no damage to plant, read-out: Foxtail, Giant damage rating) was 90% and the pest or weed control at 250 g/ha ([8]; 250 g ai/ha, read-out: Foxtail, Giant damage rating (100=total damage to plant; 0=no damage to plant)) was 90%. It also gave a pest or weed control at 15.625 g/ha ([9]; 15.625 g ai/ha, read-out: Velvetleaf damage rating (100=total damage to plant; 0=no damage to plant)) of 0%, a pest or weed control at 62.5 g/ha ([9]; 62.5 g ai/ha, 100=total damage to plant, 0=no damage to plant, read-out: Velvetleaf damage rating) of 40% and a pest or weed control at 250 g/ha ([9]; 250 g ai/ha, read-out: Velvetleaf damage rating (100=total damage to plant; 0=no damage to plant)) of 70%. For the same compound, the plant injury at 15.625 g/ha ([10]; 15.625 g ai/ha, read-out: Corn damage rating (100=total damage to plant; 0=no damage to plant)) was 20%, the plant injury at 62.5 g/ha ([10]; 62.5 g ai/ha, 100=total damage to plant, 0=no damage to plant, read-out: Corn damage rating) was 30% and the plant injury at 250 g/ha ([10]; 250 g ai/ha, read-out: Corn damage rating (100=total damage to plant; 0=no damage to plant)) was 90%. The pest or weed control at 15.625 g/ha ([11]; 15.625 g ai/ha, read-out: Morningglory, Ivy-leaved damage rating (100=total damage to plant; 0=no damage to plant)) was 0%, the pest or weed control at 62.5 g/ha ([11]; 62.5 g ai/ha, 100=total damage to plant, 0=no damage to plant, read-out: Morningglory, Ivy-leaved damage rating) was 30% and the pest or weed control at 250 g/ha ([11]; 250 g ai/ha, read-out: Morningglory, Ivy-leaved damage rating (100=total damage to plant; 0=no damage to plant)) was 70%. It also gave a pest or weed control at 15.625 g/ha ([12]; 15.625 g ai/ha, read-out: Pigweed, Redroot damage rating (100=total damage to plant; 0=no damage to plant)) of 0%, a pest or weed control at 62.5 g/ha ([12]; 62.5 g ai/ha, 100=total damage to plant, 0=no damage to plant, read-out: Pigweed, Redroot damage rating) of 40% and a pest or weed control at 250 g/ha ([12]; 250 g ai/ha, read-out: Pigweed, Redroot damage rating (100=total damage to plant; 0=no damage to plant)) of 80%.
